Laboratory results as given in US11638765B2, “Double-labeled probe for molecular imaging and use thereof” (Deutsches Krebsforschungszentrum, priority 2017, dated 2023).
One block for each compound: values may come before it.

Legend:
[1] = tested on: PSMA+ LNCaP cells; assay: Internalization experiments (surface-bound and internalized fractions); type: cell-based; conditions: 30 nM radiolabeled compound, 45 min
Experimental: (§1) PSMA^+ LNCaP cells (ATCC CRL-1740) were cultured in RPMI medium supplemented with 10% fetal calf serum and 2 mmol/L L-glutamine (all from PAA). Cells were grown at 37° C. in humidified air with 5% CO2 and were harvested using trypsin-ethylenediaminetetraacetic acid (trypsin-EDTA; 0.25% trypsin, 0.02% EDTA, Invitrogen).
For internalization experiments, 10^5 cells per well were seeded in poly-L-lysine coated 24-well cell culture plates 24 h before incubation. After washing, the cells were incubated with 30 nM of the radiolabeled compound for 45 min at 37° C. and at 4° C., respectively. Cellular uptake was terminated by washing 3 times with 1 mL of ice-cold PBS. To remove surface-bound radioactivity, cells were incubated twice with 0.5 mL glycine-HCl in PBS (50 mM, pH=2.8) for 5 min. The cells were washed with 1 mL of ice-cold PBS and lysed using 0.3 N NaOH (0.5 mL). The surface-bound and the internalized fractions were measured in a gamma counter. The cell uptake was calculated as percent of the initially added radioactivity bound to 10^5 cells [% ID/10^5 cells].

[2] = target: T1, PSMA (PSMA+ LNCaP cells) (Homo sapiens, UniProt Q04609); assay: Competitive cell binding assay against 68Ga-labeled PSMA-10 radioligand; conditions: radioligand [68Ga]Ga-PSMA-10 0.75 nM, metal-free ligand
T1 construct: host or cells: LNCaP cells
T1 sequence (Q04609 whole entry): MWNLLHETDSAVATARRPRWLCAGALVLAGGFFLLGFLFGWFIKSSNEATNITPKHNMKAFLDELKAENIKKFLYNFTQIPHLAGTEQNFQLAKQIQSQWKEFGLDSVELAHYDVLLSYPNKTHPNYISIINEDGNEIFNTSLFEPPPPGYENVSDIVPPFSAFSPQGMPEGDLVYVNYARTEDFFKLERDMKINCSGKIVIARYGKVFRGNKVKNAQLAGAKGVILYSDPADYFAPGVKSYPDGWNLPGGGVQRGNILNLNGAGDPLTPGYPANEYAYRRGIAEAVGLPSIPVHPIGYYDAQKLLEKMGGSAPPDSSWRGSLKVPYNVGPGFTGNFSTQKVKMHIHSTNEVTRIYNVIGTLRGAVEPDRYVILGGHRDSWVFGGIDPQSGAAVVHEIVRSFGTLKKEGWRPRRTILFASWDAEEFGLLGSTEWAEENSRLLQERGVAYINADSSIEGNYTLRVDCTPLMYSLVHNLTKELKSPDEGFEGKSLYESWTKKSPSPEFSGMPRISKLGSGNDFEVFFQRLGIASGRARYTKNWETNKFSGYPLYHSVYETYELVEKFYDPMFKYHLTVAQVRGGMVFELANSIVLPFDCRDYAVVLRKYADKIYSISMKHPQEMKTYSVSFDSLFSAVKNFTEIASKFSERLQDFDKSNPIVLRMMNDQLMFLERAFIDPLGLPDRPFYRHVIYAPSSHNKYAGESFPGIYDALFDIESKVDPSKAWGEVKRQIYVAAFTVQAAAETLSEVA
Experimental: as §1
The competitive cell binding assay and internalization experiments were performed as described previously (4). Briefly, the cells (10^5 per well) were incubated with a 0.75 nM solution of ^68Ga-labeled radioligand [Glu-urea-Lys(Ahx)]2-HBED-CC (PSMA-10, precursor ordered from ABX, Radeberg, Germany) in the presence of 12 different concentrations of analyte (0-5000 nM, 100 μL/well). After incubation, the mixture was removed and the wells were washed 3 times with PBS using a multiscreen vacuum manifold (Millipore, Billerica, Mass.). Cell-bound radioactivity was measured using a gamma counter (Packard Cobra II, GMI, Minn., USA). The 50% inhibitory concentration (IC50) values were calculated by fitting the data using a nonlinear regression algorithm (GraphPad Software).

[3] = target: PSMA (Homo sapiens, UniProt Q04609); conditions: radioligand of the competitive binding assay; cited from earlier work
Sequence of PSMA (Q04609 whole entry, species assumed): as the sequence (Q04609 whole entry) above

[4] = Biodistribution (organ distribution) of 68Ga-labeled compounds in LNCaP-tumor bearing mice; type: in vivo, BALB/c nu/nu mice; conditions: 1 h p.i.
Experimental: The precursor peptides [1 nmol in HEPES buffer (580 mg/ml), 40 μL] were added to 40 μL [^68Ga]Ga^3+ eluate (˜40 MBq). The pH was adjusted to 3.8 using 30% NaOH and 10% NaOH, respectively. The reaction mixture was incubated at 98° C. for 10 minutes. The radiochemical yield (RCY) was determined by HPLC.
For the experimental tumor models 5×10^6 cells of LNCaP (in 50% Matrigel; Becton Dickinson, Heidelberg, Germany) were subcutaneously inoculated into the right trunk of 7- to 8-week-old male BALB/c nu/nu mice (Charles River). The tumors were allowed to grow until approximately 1 cm^3 in size. The ^68Ga-labeled compounds were injected into a tail vein (1-2 MBq; 60 pmol). At 1 h after injection the animals were sacrificed. Organs of interest were dissected, blotted dry, and weighed. The radioactivity was measured using a gamma counter and calculated as % ID/g. All animal experiments complied with the current laws of the Federal Republic of Germany.

- IC50 [2]: 15.9 ± 5.46 nM
Compound: CC1(C)C(/C=C/C2=C(Oc3ccc(S(=O)(=O)O)cc3)C(=C/C=C3/N(CCCCS(=O)(=O)O)c4ccc(S(=O)(=O)O)cc4C3(C)C)/CCC2)=[N+](CCCCCC(=O)NCCCC[C@H](NC(=O)CN2CCN(CC(=O)O)CCN(CC(=O)O)CCN(CC(=O)O)CC2)C(=O)NC[C@H]2CC[C@H](C(=O)N[C@@H](Cc3ccc4ccccc4c3)C(=O)NCCCC[C@H](NC(=O)N[C@@H](CCC(=O)O)C(=O)O)C(=O)O)CC2)c2ccc(S(=O)(=O)[O-])cc21 (stereo in doubt) [Glu-urea-Lys-2-Nal-Chx-Lys(IRDye800CW)-DOTA]
- Specific cell surface bound [1]: 25.51 ± 9.73 % ID/10^5 cells
- Specific internalized [1]: 27.64 ± 12.80 % ID/10^5 cells

Compound: [Glu-urea-Lys(Ahx)]2-HBED-CC [[^68Ga]Ga -PSMA-10]
- Kd [3]: 2.1 nM

- Kidney uptake in comparison to the reference ([4]; in words): significantly reduced
- Tumor uptake in comparison to the reference ([4]; in words): comparable
- Organ distribution, Blood (Mean) ([4]; tail vein, 60 pmol, n = 3): 1.14 % ID/g
- Organ distribution, Brain (Mean) ([4]; tail vein, 60 pmol, n = 3): 0.07 % ID/g
- Organ distribution, Heart (Mean) ([4]; tail vein, 60 pmol, n = 3): 0.51 % ID/g
- Organ distribution, Intestine (Mean) ([4]; tail vein, 60 pmol, n = 3): 0.43 % ID/g
- Organ distribution, Kidney (Mean) ([4]; tail vein, 60 pmol, n = 3): 65.64 % ID/g
- Organ distribution, Liver (Mean) ([4]; tail vein, 60 pmol, n = 3): 0.95 % ID/g
- Organ distribution, Lung (Mean) ([4]; tail vein, 60 pmol, n = 3): 1.47 % ID/g
- Organ distribution, Muscle (Mean) ([4]; tail vein, 60 pmol, n = 3): 0.34 % ID/g
- Organ distribution, Spleen (Mean) ([4]; tail vein, 60 pmol, n = 3): 2.82 % ID/g
- Organ distribution, Tumor (Mean) ([4]; LNCaP tumor, tail vein, 60 pmol, n = 3): 4.13 % ID/g
Compound: ^68Ga-Glu-urea-Lys-2-Nal-Chx-Lys(IRDye800CW)-DOTA
